Data reported in PubChem BioAssay AID1963421 (Molecular Pharmacology Branch, DTP, NCI, 2024).
pIC50: −log10 of the molar value.

Tested on: 519858-162-T-J1-PDC complex spheroid growth, % test/control
Experiment: Anticancer human tumor 519858-162-T-J1-PDC patient-derived colon adenocarcinoma cell line growth inhibition [Asc]
Conditions: for pIC50: curve of first compound; for viability, T/C: stronger effect = lower value
Summary of the method: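 Stromal components (HUVEC and hMSC) are co-assembled with the cancer cells into multicellular spheroids. Drugs are then added singly or paired, at concentrations falling by half-log increments from a clinically achievable maximum, capped at 10 microM without known Cmax.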

[1] = second compound 0.00949 µM, first compound 0.00316 µM
[2] = second compound 0.00949 µM, first compound 0.01 µM
[3] = second compound 0.00949 µM, first compound 0.0316 µM
[4] = second compound 0.00949 µM, first compound 0.1 µM
[5] = second compound 0.00949 µM, first compound 0.316 µM
[6] = second compound 0.00949 µM, first compound 1 µM
[7] = second compound 0.03 µM, first compound 0.00316 µM
[8] = second compound 0.03 µM, first compound 0.01 µM
[9] = second compound 0.03 µM, first compound 0.0316 µM
[10] = second compound 0.03 µM, first compound 0.1 µM
[11] = second compound 0.03 µM, first compound 0.316 µM
[12] = second compound 0.03 µM, first compound 1 µM
[13] = second compound 0.0949 µM, first compound 0.00316 µM
[14] = second compound 0.0949 µM, first compound 0.01 µM
[15] = second compound 0.0949 µM, first compound 0.0316 µM
[16] = second compound 0.0949 µM, first compound 0.1 µM
[17] = second compound 0.0949 µM, first compound 0.316 µM
[18] = second compound 0.0949 µM, first compound 1 µM
[19] = second compound 0.3 µM, first compound 0.00316 µM
[20] = second compound 0.3 µM, first compound 0.01 µM
[21] = second compound 0.3 µM, first compound 0.0316 µM
[22] = second compound 0.3 µM, first compound 0.1 µM
[23] = second compound 0.3 µM, first compound 0.316 µM
[24] = second compound 0.3 µM, first compound 1 µM
[25] = second compound 0.949 µM, first compound 0.00316 µM
[26] = second compound 0.949 µM, first compound 0.01 µM
[27] = second compound 0.949 µM, first compound 0.0316 µM
[28] = second compound 0.949 µM, first compound 0.1 µM
[29] = second compound 0.949 µM, first compound 0.316 µM
[30] = second compound 0.949 µM, first compound 1 µM
[31] = second compound 3 µM, first compound 0.00316 µM
[32] = second compound 3 µM, first compound 0.01 µM
[33] = second compound 3 µM, first compound 0.0316 µM
[34] = second compound 3 µM, first compound 0.1 µM
[35] = second compound 3 µM, first compound 0.316 µM
[36] = second compound 3 µM, first compound 1 µM
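Further: seven day drug exposure begun three days after spheroid seeding.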
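Wherever viability, T/C is given: 100% = DMSO vehicle wells and lower values mean less viable spheroid.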

With `O=C(c1ccc(F)c(F)c1Nc1ccc(I)cc1F)N1CC(O)([C@@H]2CCCCN2)C1` + CCN1C(C(=O)NC23CCC(C(=O)O)(CC2)CC3)C(c2cccc(Cl)c2F)C2(C(=O)Nc3cc(Cl)ccc32)C12CCCCC2 the pIC50 (second compound 0.00949 µM) was 6.67, the pIC50 (second compound 0.03 µM) was 6.89 and the pIC50 (second compound 0.0949 µM) was 6.68. It also gave a pIC50 (second compound 0.3 µM) of 6.60, a pIC50 (second compound 0.949 µM) of 6.61 and a pIC50 (second compound 3 µM) of 6.78. It also gave a viability, T/C [1] of 57.3%, a viability, T/C [2] of 86.8% and a viability, T/C [3] of 88.8%. The viability, T/C [4] was 116%, the viability, T/C [5] was 30.6% and the viability, T/C [6] was 19.1%. For the same molecule, the viability, T/C [7] was 126%, the viability, T/C [8] was 91.1% and the viability, T/C [9] was 93.1%. For the same molecule, the viability, T/C [10] was 56%, the viability, T/C [11] was 42.5% and the viability, T/C [12] was 17.6%. For the same molecule, the viability, T/C [13] was 105%, the viability, T/C [14] was 115% and the viability, T/C [15] was 64.8%. For the same molecule, the viability, T/C [16] was 79.9%, the viability, T/C [17] was 36.1% and the viability, T/C [18] was 15.5%. The viability, T/C [19] was 90.5%, the viability, T/C [20] was 90% and the viability, T/C [21] was 66.1%. It also gave a viability, T/C [22] of 91.8%, a viability, T/C [23] of 41.1% and a viability, T/C [24] of 17.2%. For the same molecule, the viability, T/C [25] was 81%, the viability, T/C [26] was 64% and the viability, T/C [27] was 73%. It also gave a viability, T/C [28] of 70.1%, a viability, T/C [29] of 44.3% and a viability, T/C [30] of 21.9%. The viability, T/C [31] was 68.4%, the viability, T/C [32] was 104% and the viability, T/C [33] was 46.3%. The viability, T/C [34] was 65.7%, the viability, T/C [35] was 39.5% and the viability, T/C [36] was 14.3%.
`CCN1CCN(Cc2ccc(Nc3ncc(F)c(-c4cc(F)c5nc(C)n(C(C)C)c5c4)n3)nc2)CC1` + CCN1C(C(=O)NC23CCC(C(=O)O)(CC2)CC3)C(c2cccc(Cl)c2F)C2(C(=O)Nc3cc(Cl)ccc32)C12CCCCC2 showed a pIC50 (second compound 0.00949 µM) of less than 6.00, a pIC50 (second compound 0.03 µM) of less than 6.00 and a pIC50 (second compound 0.0949 µM) of less than 6.00. The pIC50 (second compound 0.3 µM) was less than 6.00, the pIC50 (second compound 0.949 µM) was less than 6.00 and the pIC50 (second compound 3 µM) was less than 6.00. It also gave a viability, T/C [1] of 85.7%, a viability, T/C [2] of 89.3% and a viability, T/C [3] of 76.2%. For the same molecule, the viability, T/C [4] was 88.8%, the viability, T/C [5] was 60.2% and the viability, T/C [6] was 71%. For the same molecule, the viability, T/C [7] was 124%, the viability, T/C [8] was 84.4% and the viability, T/C [9] was 91.5%. For the same molecule, the viability, T/C [10] was 105%, the viability, T/C [11] was 93.4% and the viability, T/C [12] was 76.9%. The viability, T/C [13] was 99.8%, the viability, T/C [14] was 95.7% and the viability, T/C [15] was 86.2%. It also gave a viability, T/C [16] of 81.7%, a viability, T/C [17] of 67.7% and a viability, T/C [18] of 58.8%. The viability, T/C [19] was 97.6%, the viability, T/C [20] was 83.5% and the viability, T/C [21] was 69.1%. It also gave a viability, T/C [22] of 61.9%, a viability, T/C [23] of 64.2% and a viability, T/C [24] of 104%. It also gave a viability, T/C [25] of 87.4%, a viability, T/C [26] of 72.6% and a viability, T/C [27] of 84.8%. For the same molecule, the viability, T/C [28] was 80.9%, the viability, T/C [29] was 81.2% and the viability, T/C [30] was 63%. It also gave a viability, T/C [31] of 71.4%, a viability, T/C [32] of 69.9% and a viability, T/C [33] of 78.6%. It also gave a viability, T/C [34] of 89.2%, a viability, T/C [35] of 72.7% and a viability, T/C [36] of 66.4%.
